Assay: recombinant barcode read abundance after kanamycin selection (control-corrected) (log10(CPM+1)); higher = more efficient recombination; sequences stand for … in AGTGCAGAGAAAATCGGCCAGTTTTCTCTGCCTGCAGTCCGCATGCCGT…AGATTTATGCAGCGGACTGCCTTTCTCCCAAAGTGATAAACCGGACAGTATCATGGACCGGTTTTCCCGGTAATCCGTATTTGCAAGGTTGGTTTCACT; site = the 11-nt target
Summary of the method: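 Pooled E. coli screen pairing targets with IS621 bridge RNA target-binding loops. Each oligo (promoter, target, barcode, J23119-driven first 104 bridge RNA bases) was Gibson-cloned into a vector with the remaining 73 bp and T7-inducible recombinase, then co-electroporated with a donor plasmid. Two replicates each were plated on chloramphenicol/ampicillin LB agar (control) or chloramphenicol/ampicillin/kanamycin with 0.1 mM IPTG. Recombination efficiency is recombinant-junction barcode counts as CPM, averaged, control-corrected, reported as log10(CPM+1).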
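Also: IS621 recombinase and bridge RNA in Escherichia coli cells.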

Row | Sequence | recombinant barcode read abundance (log10)
1 | TATAGCTCTTGGGTTCTAACCTGTTGCCT (site CATAGCTCTAG) | 0.242
2 | TATAGCTCTTGGGTTCTAACCTGTTGCCT (site GATAGCTCTAG) | 0.106
3 | TATAGCTCTTGGGTTCTAACCTGTTGCCT (site TATAGCTCTAG) | 0.479
4 | TATAGGGCTTGGGTTCTAACCTGTTGCCG (site GATAGGGCTCC) | 0
5 | TATAGGGCTTGGGTTCTAACCTGTTGCCG (site TATAGGGCTCG) | 0.402
6 | TATATATCTTGGGTTCTAACCTGTTGCAT (site AGGTGTCCTTC) | 0.112
7 | TATATATCTTGGGTTCTAACCTGTTGCAT (site TATATATCTAT) | 0.23
8 | TATCAGACTTGGGTTCTAACCTGTTGCAG (site TATCAGACTCT) | 1.45
9 | TATCAGACTTGGGTTCTAACCTGTTGCAG (site TCTCAGGCTCT) | 0.121
10 | TATCAGCCTTGGGTTCTAACCTGTTGCTT (site CATCAGCCTAC) | 0.0522
11 | TATCAGCCTTGGGTTCTAACCTGTTGCTT (site TATCAGCCTAA) | 0.0238
12 | TATCCCTCTTGGGTTCTAACCTGTTGCCT (site ATCAAGCCTCT) | 0.18
13 | TATCCCTCTTGGGTTCTAACCTGTTGCCT (site TATCCCTCTAG) | 1.14
14 | TATCCGACTTGGGTTCTAACCTGTTGCCA (site TATCCGACTAG) | 0.56
15 | TATCCGACTTGGGTTCTAACCTGTTGCCA (site TATCCGACTCG) | 0.142
16 | TATCCGACTTGGGTTCTAACCTGTTGCCA (site TATCCGACTGG) | 0.0584
17 | TATCCGACTTGGGTTCTAACCTGTTGCCA (site TATCCGACTTG) | 0.135
18 | TATGGAGCTTGGGTTCTAACCTGTTGCTG (site AATGGGGCTCA) | 0.523
19 | TATGGAGCTTGGGTTCTAACCTGTTGCTG (site TATGGAGCTCA) | 1.58
20 | TATGGGACTTGGGTTCTAACCTGTTGCCT (site TATCGCACTAG) | 0.0772
21 | TATGGGACTTGGGTTCTAACCTGTTGCCT (site TATGGGACTAG) | 1.25
22 | TATGGTACTTGGGTTCTAACCTGTTGCGT (site GGGATACCTTA) | 0.0757

Row | Sequence | recombinant barcode read abundance (log10)
23 | TATGGTACTTGGGTTCTAACCTGTTGCGT (site TATGGTACTAC) | 2.22
24 | TATGGTTCTTGGGTTCTAACCTGTTGCCT (site TATGCTTCTAA) | 0.0349
25 | TATGGTTCTTGGGTTCTAACCTGTTGCCT (site TATGGTTCTAG) | 0.502
26 | TATTAGACTTGGGTTCTAACCTGTTGCCT (site AATTAGACTAG) | 0.158
27 | TATTAGACTTGGGTTCTAACCTGTTGCCT (site CATTAGACTAG) | 0.13
28 | TATTAGACTTGGGTTCTAACCTGTTGCCT (site GATTAGACTAG) | 0.209
29 | TATTAGACTTGGGTTCTAACCTGTTGCCT (site TATTAGACTAG) | 0.225
30 | TATTCTACTTGGGTTCTAACCTGTTGCGT (site TATTCTACTAC) | 0.0342
31 | TATTCTACTTGGGTTCTAACCTGTTGCGT (site TATTCTACTCC) | 0.365
32 | TATTCTACTTGGGTTCTAACCTGTTGCGT (site TATTCTACTGC) | 0.0341
33 | TATTCTACTTGGGTTCTAACCTGTTGCGT (site TATTCTACTTC) | 0.0549
34 | TATTGGACTTGGGTTCTAACCTGTTGCAC (site TATTGGACTAT) | 0.0463
35 | TATTGGACTTGGGTTCTAACCTGTTGCAC (site TATTGGACTCT) | 0.122
36 | TATTGGACTTGGGTTCTAACCTGTTGCAC (site TATTGGACTGT) | 0.0567
37 | TATTGGACTTGGGTTCTAACCTGTTGCAC (site TATTGGACTTT) | 0.0673
38 | TATTGGACTTGGGTTCTAACCTGTTGCAT (site TATTGGACTAT) | 0.421
39 | TATTGGACTTGGGTTCTAACCTGTTGCAT (site TATTGGACTCT) | 0.153
40 | TATTGGACTTGGGTTCTAACCTGTTGCAT (site TATTGGACTGT) | 0.155
41 | TATTGGACTTGGGTTCTAACCTGTTGCAT (site TATTGGACTTT) | 0.101
42 | TATTGGACTTGGGTTCTAACCTGTTGCTT (site AATTGGACTAA) | 0.0764
43 | TATTGGACTTGGGTTCTAACCTGTTGCTT (site CATTGGACTAA) | 0.0882
44 | TATTGGACTTGGGTTCTAACCTGTTGCTT (site GATTGGACTAA) | 0.0435

Row | Sequence | recombinant barcode read abundance (log10)
45 | TATTGGACTTGGGTTCTAACCTGTTGCTT (site TATTGGACTAA) | 0.141
46 | TATTTGTCTTGGGTTCTAACCTGTTGCCA (site CACTTGTCTTG) | 0.023
47 | TATTTGTCTTGGGTTCTAACCTGTTGCCA (site TATTTGTCTTG) | 0.156
48 | TCAAGCCCTTGGGTTCTAACCTGTTGCAG (site CAGTCTACTAC) | 0.011
49 | TCAAGCCCTTGGGTTCTAACCTGTTGCAG (site TCAAGCCCTCT) | 0.927
50 | TCAAGGCCTTGGGTTCTAACCTGTTGCCT (site ACAAGGCCTAG) | 0.147
51 | TCAAGGCCTTGGGTTCTAACCTGTTGCCT (site CCAAGGCCTAG) | 0.084
52 | TCAAGGCCTTGGGTTCTAACCTGTTGCCT (site GCAAGGCCTAG) | 0.106
53 | TCAAGGCCTTGGGTTCTAACCTGTTGCCT (site TCAAGGCCTAG) | 0.32
54 | TCAATCCCTTGGGTTCTAACCTGTTGCCT (site TCAATCCCTAG) | 0.326
55 | TCAATCCCTTGGGTTCTAACCTGTTGCCT (site TCCATCCCTAG) | 0.048
56 | TCAATCCCTTGGGTTCTAACCTGTTGCCT (site TCGATCCCTAG) | 0.173
57 | TCAATCCCTTGGGTTCTAACCTGTTGCCT (site TCTATCCCTAG) | 0.0124
58 | TCACACACTTGGGTTCTAACCTGTTGCCT (site CTCAGACCTCA) | 0.0319
59 | TCACACACTTGGGTTCTAACCTGTTGCCT (site TCACACACTAG) | 1.06
60 | TCACCGCCTTGGGTTCTAACCTGTTGCCT (site ACACCGCCTAG) | 0.75
61 | TCACCGCCTTGGGTTCTAACCTGTTGCCT (site CCACCGCCTAG) | 0.141
62 | TCACCGCCTTGGGTTCTAACCTGTTGCCT (site GCACCGCCTAG) | 0.0186
63 | TCACCGCCTTGGGTTCTAACCTGTTGCCT (site TCACCGCCTAG) | 0.172
64 | TCACCTGCTTGGGTTCTAACCTGTTGCCT (site TCACATGCTAG) | 0.0199
65 | TCACCTGCTTGGGTTCTAACCTGTTGCCT (site TCACCTGCTAG) | 0.961
66 | TCACCTGCTTGGGTTCTAACCTGTTGCCT (site TCACGTGCTAG) | 0.192

Row | Sequence | recombinant barcode read abundance (log10)
67 | TCACCTGCTTGGGTTCTAACCTGTTGCCT (site TCACTTGCTAG) | 0.0607
68 | TCACGTCCTTGGGTTCTAACCTGTTGCGG (site TCACGTCCTCC) | 1.3
69 | TCACGTCCTTGGGTTCTAACCTGTTGCGG (site TTACGTCCTCC) | 0.0483
70 | TCACGTGCTTGGGTTCTAACCTGTTGCCT (site TCACATGCTAG) | 0.0819
71 | TCACGTGCTTGGGTTCTAACCTGTTGCCT (site TCACCTGCTAG) | 0.105
72 | TCACGTGCTTGGGTTCTAACCTGTTGCCT (site TCACGTGCTAG) | 0.563
73 | TCACGTGCTTGGGTTCTAACCTGTTGCCT (site TCACTTGCTAG) | 0.121
74 | TCACTCTCTTGGGTTCTAACCTGTTGCCT (site TAACTCTCTAG) | 0.111
75 | TCACTCTCTTGGGTTCTAACCTGTTGCCT (site TCACTCTCTAG) | 1.22
76 | TCACTCTCTTGGGTTCTAACCTGTTGCCT (site TGACTCTCTAG) | 0.0273
77 | TCACTCTCTTGGGTTCTAACCTGTTGCCT (site TTACTCTCTAG) | 0.062
78 | TCACTTCCTTGGGTTCTAACCTGTTGCCT (site TCACCTTCTAG) | 0.121
79 | TCACTTCCTTGGGTTCTAACCTGTTGCCT (site TCACTTCCTAG) | 0.0238
80 | TCACTTGCTTGGGTTCTAACCTGTTGCCT (site TCACATGCTAG) | 0.0105
81 | TCACTTGCTTGGGTTCTAACCTGTTGCCT (site TCACCTGCTAG) | 0.0436
82 | TCACTTGCTTGGGTTCTAACCTGTTGCCT (site TCACGTGCTAG) | 0.177
83 | TCACTTGCTTGGGTTCTAACCTGTTGCCT (site TCACTTGCTAG) | 0.215
84 | TCAGAAGCTTGGGTTCTAACCTGTTGCCG (site ATGAGGCCTTA) | 0.022
85 | TCAGAAGCTTGGGTTCTAACCTGTTGCCG (site TCAGAAGCTCG) | 0.689
86 | TCAGCCTCTTGGGTTCTAACCTGTTGCCT (site CTGTGTCCTCC) | 0.11

— the supplement of paper PMC11208160
